Patent US9102637B2, “Bicyclic thiazole compounds” (CARNA BIOSCIENCES INC., priority 2013, dated 2015)

Target: human TNIK (N-terminal segment, TNIK_N, residues 1-314) (Homo sapiens (Human), UniProt Q9UKE5)
Assay: TNIK kinase assay (mobility shift)
Assay type: biochemical
Details: TNIK_N kinase activity, 25 μM ATP, 1 h at room temperature
Source text: Preparation of Recombinant Human TNIK (N-Terminal Segment):
A cDNA encoding the N-terminal segment (TNIK_N, residues 1-314) containing the kinase domain of human TNIK (NM_015028.1) was amplified from cDNA mixture synthesized from human tissue (Biochain) by PCR using the following primers.
The cDNA was subcloned into baculovirus transfer vector pFastBac_GSTb that includes protease cleavage site and glutathione S-transferase purification tag (GST-tag). The plasmid was purified and the insertion of the pFastBac_GSTb-TNIK_N was confirmed by DNA sequencing. Then E. coli DH10Bac competent cells were transformed with the plasmid to prepare the recombinant bacmid according to the instructions for the Bac-to-Bac™ baculovirus expression systems (Invitrogen). The Sf9 cells were transfected with the recombinant bacmid containing pFastBac_GSTb-TNIK_N using Cellfectin Reagent (Invitrogen) in SF-9001I serum free media (Invitrogen). The viral supernatant was collected from the medium 72 h after transfection. The virus was amplified three times by infecting actively growing Sf9 or Sf21 cells in Grace's insect media (Invitrogen) supplemented with 10% FCS and an antibiotic-antimycotic reagent (Invitrogen) for 72 h at 27° C. in T-flask or roller bottles. The titer of amplified TNIK_N virus was estimated at 2.36×10^8 pfu/ml by using BacPAK™ Baculovirus Rapid Titer kit (Clontech).
Log-phase Sf21 cells (2×10^6 cells/ml) in the Grace's insect media were infected with the recombinant baculovirus at MOI of 3.0 and incubated in roller bottles (250 ml media per bottle) for 72 h at 27° C., after which, the cells were collected by centrifugation, and the cell pellet washed with cold PBS and kept at −80° C. until purification. The following purification procedures were carried out at 4° C. The frozen cells were thawed on ice and lysed in lysis buffer (50 mM Tris-HCl, pH 7.5, 150 mM NaCl, 1% Nonidet P-40, 5 mM DTT, 0.5 mM EDTA, 0.5 mM EGTA) supplemented with 1 mM phenylmethansulfonylfluoride, 2 μg/ml leupeptin, 2 μg/ml aprotinin, 1 mM NaF, 100 μM sodium orthovanadate, and 1 μM cantharidin by sonication. The suspended lysate was cleared by centrifugation at 9000g for 20 min and the supernatant was incubated for 1 h with glutathione Sepharose beads (GE Healthcare). The beads were suspended in buffer-H (50 mM Tris-HCl, pH 7.5, 1 M NaCl, 1 mM DTT, 0.5 mM EDTA, 0.5 mM EGTA and 0.05% Brij35) and washed with buffer-H followed by buffer-L (50 mM Tris-HCl, pH 7.5, 150 mM NaCl, 1 mM DTT, 0.5 mM EDTA, 0.5 mM EGTA, 0.05% Brij35) in an Econo-pack column (BIO-RAD). The bound TNIK_N was eluted with elution buffer (50 mM Tris-HCl, pH 8.0, 150 mM NaCl, 1 mM DTT, 10% glycerol, 0.5 mM EDTA, 0.5 mM EGTA and 5 mM reduced glutathione). The eluted fractions were collected and determined the protein concentration by Bradford reagent (BIO-RAD). The TNIKN fractions were pooled and desalted using 10DG column (BIORAD) equilibrated with the storage buffer (50 mM Tris-HCl, pH 7.5, 150 mM NaCl, 1 mM DTT, 10% glycerol, 0.05% Brij35). The purified TNIKN was characterized by electrophoresis using 4-20% polyacrylamide gels and matrix-assisted laser desorption/ionization reflection time-of-flight (MALDI-TOF) mass spectrometry on a Voyager-DE RP MALDI/TOF (Applied Biosystems). TNIK_N was confirmed by the molecular weight and. MASCOT Peptide Mass Fingerprint.
The kinase assays were conducted in a 20 μl volume using 384-well plates (Greiner). The reaction mixture consists of compound or vehicle (1% DMSO), 0.08 ng/μl TNIK_N, 1 μM FITC-labeled substrate peptides, including E-aminocaproic acid and 7 amino acids (described as SEQ ID NO.3 in “Kinase assay of TEST EXAMPLE 1” of WO 2010/064111(P.31)), 20 mM Hepes, pH 7.5, 0.01% Triton X-100, 5 mM MgCl2, 25 μM ATP and 2 mM DTT. As blank, TNIK N was excluded from the reaction mixture of vehicle (1% DMSO). […]

human TNIK (N-terminal segment, TNIK_N, residues 1-314), sequence (Q9UKE5 1-314): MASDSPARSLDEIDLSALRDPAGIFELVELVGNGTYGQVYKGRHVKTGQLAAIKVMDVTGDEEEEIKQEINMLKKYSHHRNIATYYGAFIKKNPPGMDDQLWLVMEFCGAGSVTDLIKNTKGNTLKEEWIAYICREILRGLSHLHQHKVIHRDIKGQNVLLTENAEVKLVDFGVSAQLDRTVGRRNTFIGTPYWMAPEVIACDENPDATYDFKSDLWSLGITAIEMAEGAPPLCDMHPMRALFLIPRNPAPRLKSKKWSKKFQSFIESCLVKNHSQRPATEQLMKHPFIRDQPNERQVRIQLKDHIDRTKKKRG

Row | SMILES | IC50 [nM]
1 | NC(=O)c1nc(Nc2ccc3ccccc3c2)sc1NC(=O)c1ccc(NCCO)c(N)c1 [Example 121, 5-{3-amino-4-[(2-hydroxyethyl)amino]benzamido}-2-(naphthalen-2-ylamino)thiazole-4-carbox-amide] | 24.4
2 | NC(=O)c1nc(Nc2ccc3ncccc3c2)sc1NC(=O)c1ccc(Cn2ccnc2)cc1 [Example 250, 5-{4-[(1H-imidazol-1-yl)methyl]benzamido}-2-(quinolin-6-ylamino)thiazole-4-carboxamide] | 3
3 | COc1ccc2cc(Nc3nc(C(N)=O)c(NC(=O)c4ccc(N)cc4)s3)ccc2c1 [Example 136, 5-(4-aminobenzamido)-2-[(6-methoxynaphthalen-2-yl)amino]thiazole-4-carboxamide] | 9.7
4 | COc1cc(Nc2nc(C(N)=O)c(NC(=O)c3ccsc3)s2)cc2ccccc12 [Example 74, 2-[(4-methoxynaphthalen-2-yl)amino]-5-(thio-phene-3-carboxamido)thiazole-4-carboxamide] | 51.3
5 | NC(=O)c1nc(Nc2ccc3ccccc3c2)sc1NC(=O)c1ccc(CN2C(=O)CSC2=O)cc1 [Example 252, 5-{4-[(2,4-dioxothiazolidin-3-yl)methyl]benzamido}-2-(naphthalen-2-ylamino)thiazole-4-carbox-amide] | 15.9
6 | Cc1nnc(Cc2ccc(C(=O)Nc3sc(Nc4ccc5ccccc5c4)nc3C(N)=O)cc2)o1 [Example 257, 5-{4-[(5-methyl-1,3,4-oxadiazol-2-yl)methyl]benzamido}-2-(naphthalen-2-ylamino)thiazole-4-carboxamide] | 6.2
7 | NC(=O)c1nc(Nc2ccc3ccccc3c2)sc1NC(=O)c1ccc(Cc2nn[nH]n2)cc1 [Example 231, 5-{4-[(2H-tetrazol-5-yl)methyl]benzamido}-2-(naphthalen-2-ylamino)thiazole-4-carboxamide] | 2.9
8 | NC(=O)c1nc(Nc2ccc3ccccc3c2)sc1NC(=O)c1ccc(CN2CC[C@H](O)C2)cc1 [Example 203, (S)-5-{4-[(3-hydroxypyrrolidin-1-yl)methyl]benzamido}-2-(naphthalen-2-ylamino)thiazole-4-carboxamide] | 5
9 | NC(=O)c1nc(Nc2ccc3ccccc3c2)sc1NC(=O)C#CCO [Example 218, 5-(4-hydroxybut-2-ynamido)-2-(naphthalen-2-yl-amino)thiazole-4-carboxamide] | 4.5
10 | Cc1noc(Cc2ccc(C(=O)Nc3sc(Nc4ccc5ccccc5c4)nc3C(N)=O)cc2)n1 [Example 256, 5-{4-[(3-methyl-1,2,4-oxadiazol-5-yl)methyl]benzamido}-2-(naphthalen-2-ylamino)thiazole-4-carboxamide] | 18.5
11 | C#CC(=O)Nc1sc(Nc2ccc3ccccc3c2)nc1C(N)=O [Example 204, 2-(naphthalen-2-ylamino)-5-propiolamidothiazole-4-carboxamide] | 6
12 | NC(=O)c1nc(Nc2ccc3ccccc3c2)sc1NC(=O)CCCCCN1CCOCC1 [Example 92, 5-(6-morpholinohexanamido)-2-(naphthalen-2-ylamino)thiazole-4-carboxamide] | 20.2
13 | NC(=O)c1nc(Nc2ccc3ccc(F)cc3c2)sc1NC(=O)c1ccc(NCCO)cc1 [Example 124, 2-[(7-fluoronaphthalen-2-yl)amino]-5-{4-[(2-hydroxyethyl)amino]benzamido}thiazole-4-carbox-amide] | 12.9
14 | CC(C)=CC(=O)Nc1sc(Nc2ccc3cc(CO)ccc3c2)nc1C(N)=O [Example 139, 2-{[6-(hydroxymethyl)naphthalen-2-yl]amino}-5-(3-methylbut-2-enamido)thiazole-4-carboxamide] | 1.6
15 | NC(=O)c1nc(Nc2ccc3ccccc3c2)sc1NC(=O)c1ccc(CN2CCNC(=O)C2)cc1 [Example 180, 2-(naphthalen-2-ylamino)-5-{4-[(3-oxopiperazin-1-yl)methyl]benzamido}thiazole-4-carboxamide] | 4.2
16 | NC(=O)c1nc(Nc2ccc3ccccc3c2)sc1NC(=O)c1ccc(CNCCO)cc1 [Example 163, 5-(4-{[(2-hydroxyethyl)amino]methyl}benzamido)-2-(naphthalen-2-ylamino)thiazole-4-carboxamide] | 3.7
17 | CN(CCO)c1ccc(C(=O)Nc2sc(Nc3ccc4ccccc4c3)nc2C(N)=O)cc1 [Example 29, 5-{4-[(2-hydroxyethyl)methylamino]benzamido}-2-(naphthalen-2-ylamino)thiazole-4-carboxamide] | 27.4
18 | COc1ccc2cc(Nc3nc(C(N)=O)c(NC(=O)c4ccc(Cn5ccnc5)cc4)s3)ccc2c1 [Example 248, 5-{4-[(1H-imidazol-1-yl)methyl]benzamido}-2-[(6-methoxynaphthalen-2-yl)amino]thiazole-4-carboxamide] | 6.1
19 | NC(=O)c1nc(Nc2ccc3ccccc3c2)sc1NC(=O)c1ccc[nH]1 [Example 33, 2-(naphthalen-2-ylamino)-5-(1H-pyrrole-2-carbox-amido)thiazole-4-carboxamide] | 7.5
20 | C[C@@H](O)CNc1ccc(C(=O)Nc2sc(Nc3ccc4ccccc4c3)nc2C(N)=O)cc1 [Example 147, (R)-5-{4-[(2-hydroxypropyl)amino]benzamido}-2-(naphthalen-2-ylamino)thiazole-4-carboxamide] | 16.8
21 | NC(=O)c1nc(Nc2ccc3ccccc3c2)sc1NC(=O)C#CCCCn1cncn1 [Example 233, 5-[6-(1H-1,2,4-triazol-1-yl)hex-2-ynamido]-2-(naphthalen-2-ylamino)thiazole-4-carboxamide] | 10.7
22 | NC(=O)c1nc(Nc2ccc3ccccc3c2)sc1NC(=O)c1ccc(Cn2cnc([N+](=O)[O-])c2)cc1 [Example 239, 2-(naphthalen-2-ylamino)-5-{4-[(4-nitro-1H-imidazol-1-yl)methyl]benzamido}thiazole-4-carbox-amide] | 5.9
23 | NC(=O)c1nc(Nc2ccc3ccc(F)cc3c2)sc1NC(=O)c1ccsc1 [Example 80, 2-[(7-fluoronaphthalen-2-yl)amino]-5-(thiophene-3-carboxamido)thiazole-4-carboxamide] | 16.9
24 | COc1ccc(C(=O)Nc2sc(Nc3ccc4ncccc4c3)nc2C(N)=O)cc1 [Example 4, 5-(4-methoxybenzamido)-2-(quinolin-6-ylamino) thiazole-4-carboxamide] | 21.5
25 | NC(=O)c1nc(Nc2ccc3ccccc3c2)sc1NC(=O)c1ccc(Cn2cnc(CO)c2)cc1 [Example 246, 5-{4-[(4-(hydroxymethyl)-1H-imidazol-1-yl)methyl]benzamido}-2-(naphthalen-2-ylamino)thiazole-4-carboxamide] | 3.5
26 | CN1CCCN(Cc2ccc(C(=O)Nc3sc(Nc4ccc5ccccc5c4)nc3C(N)=O)cc2)CC1 [Example 190, 5-{4-[(4-methyl-1,4-diazepan-1-yl)methyl]benz-amido}-2-(naphthalen-2-ylamino)thiazole-4-carbox-amide] | 3.2
27 | CN1CCN(C/C=C/C(=O)Nc2sc(Nc3ccc4ccccc4c3)nc2C(N)=O)CC1 [Example 174, (E)-5-(4-(4-methylpiperazin-1-yl)but-2-enamido)-2-(naphthalen-2-ylamino)thiazole-4-carboxamide] | 16
